Drawing on PubChem BioAssay AID2046 (NMMLSC, 2009), this text covers EC50 and Ki for 13 molecules.

The Ki is the dissociation constant of the complex between target and ligand, obtained from inhibition or displacement. Low readings indicate higher affinity, high ones lower affinity.

The source made the active and inactive calls. No rule for the calls is given here.

The first experiment deals with Ras-related protein Rab-2A (Canis lupus familiaris) (UniProt P61105). The experiment can be described thus: Rab2 wildtype GTP-binding inhibitors, SAR follow-up, biochemical, additional analogs, bead-based flow cytometry, multiplex (AID 2046). Conditions: Rab2 wt.
Sequence of Ras-related protein Rab-2A (Canis lupus familiaris) (P61105 whole entry, looked up): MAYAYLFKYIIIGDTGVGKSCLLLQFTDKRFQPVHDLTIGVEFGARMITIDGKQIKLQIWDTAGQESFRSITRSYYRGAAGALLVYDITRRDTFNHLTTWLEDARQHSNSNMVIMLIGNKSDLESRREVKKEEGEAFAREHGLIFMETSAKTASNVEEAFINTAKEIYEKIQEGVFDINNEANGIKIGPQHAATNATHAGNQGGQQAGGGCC
`O=Nc1c(-c2c(O)[nH]c3c(Cl)cccc23)[nH]c2ccccc12`: the EC50 result was “inactive”.
For the molecule `O=Nc1c(-c2c(O)[nH]c3ccccc23)[nH]c2ccccc12`, the EC50 result is “inactive”.
On to `O=C1N=c2ccccc2=C1c1[nH]c(=S)[nH]c1O`, for which the EC50 result is “inactive”.
On the same count and under the same terms, then `O=Nc1c(-c2c(O)[nH]c3c(F)cccc23)[nH]c2ccccc12`, with “inactive”; and `O=C1C(c2c(O)[nH]c3ccccc23)=Nc2ccccc21`, with “inactive”.
Regarding `O=Nc1c(-c2c(O)[nH]c3ccc(Br)cc23)[nH]c2ccccc12`, the EC50 result was “inactive”.
As to `O=C1C(c2c(O)[nH]c3c(Br)cccc23)=Nc2ccccc21`, the EC50 entry is “inactive”.
The same measure, in the same setting: then `O=C1C(c2c(O)[nH]c3c(F)cccc23)=Nc2ccccc21`, with “inactive”; and `O=C1N=c2ccccc2=C1c1[nH]c(=O)[nH]c1O`, with “inactive”; and `O=C1C(c2c(O)[nH]c3c(Cl)cccc23)=Nc2ccccc21`, with “inactive”.
Same read-out and setting: as for `O=Nc1c(-c2c(O)[nH]c3c(Br)cccc23)[nH]c2ccccc12`, the entry is “inactive”; as for `O=C1C(c2c(O)[nH]c3ccc(Br)cc23)=Nc2ccccc21`, “inactive”.

The experiment is the same for the next values; noted with them: Rab2 wt, measured here: Ki from fitted EC50.
In turn, `COc1ccc2cc([C@@H](C)C(=O)O)ccc2c1` came in with an inhibitory constant (Ki) of 0.11 µM.
The same measure, in the same setting: then `O=Nc1c(-c2c(O)[nH]c3ccc(Br)cc23)[nH]c2ccccc12`, with 4.15 µM; and `O=Nc1c(-c2c(O)[nH]c3c(Br)cccc23)[nH]c2ccccc12`, with 4.19 µM.
